Reference: patent publication US4031205A, “Method for treating nervous bladder” (priority 1975, dated 1977)

Assays:
[1] = Physical and chemical properties: solubility; assay type: physicochemical
Text: Ubiquinone n, for example, Ubiquinone 10(CoQ10), can be mainly obtained synthetically, though it is possible to extract the Ubiquinone from animal organs. Physical and chemical properties of Ubiquinone 10(CoQ10) produced synthetically are as follows.

rats of Wistar strain [2] = test: Acute toxicity test in rats; conditions: for Maximum dose (no case of deaths): single dose, 7 days observation
Text: (§1) In order to evaluate the acute toxicity of a single high dose administration of Ubiquinone 10(CoQ10), male and female rats of Wistar strain and male and female mice of ICR-JCL strain were used, and oral, intramuscular, subcutaneous, and intravenous administrations were studied. For the oral administration of Ubiquinone 10(CoQ10), gum Arabic suspension was used. For the intramuscular, subcutaneous, and intravenous administrations, Ubiquinone 10(CoQ10) is used as its solution in surfactant, hydrogenated castor oil ethylene oxide addition product (HCO-60).
(§2) Observation was carried out for 7 days, by using six males and six females for each dose group.

mice of ICR-JCL strain = test: Acute toxicity test in mice; conditions: for Maximum dose (no case of deaths): single dose, 7 days observation
Text: as §1, §2

rabbits = test: Subacute oral toxicity test in rabbits
Text: (§3) Ubiquinone 10(CoQ10) was compulsorily and orally administered every day for 23 days to each group consisting of six male rabbits and five female rabbits. […] On the 24th day, blood samples were collected from all the animals, and three males and two females from each group were then selectively autopsied.

rats = test: Teratogenesis test in rats; assay type: in vivo, rat; conditions: 6, 60, and 600 mg/Kg/day
mice = test: Teratogenesis test in mice; assay type: in vivo, mouse; conditions: 6, 60, and 600 mg/Kg/day
[3] = in vivo
Text: as §1, §2
The dose was 40, 200, and 1000 mg/Kg/day, respectively.
as §3

[4] = Clinical test: effectiveness of Ubiquinone 10(CoQ10) for nervous bladder; assay type: in vivo, human; design: Pressure curve Volume: unit not given beside the values; Residual urine / Urethral R. (Resistance): unit not given here
Experimental: Six patients compalining of dysuria and incontinentia urinac due to nervous bladder were made sujects. Case 1 was nocturnal enuresis of unknown cause, Cases 2-4 were impairement of root of spinal nerve (nuclear type), and Cases 5 and 6 were spinal impairements (supra nuclear type).
Hard capsules containing 5 mg of Ubiquinone 10(CoQ10) in the present invention were orally administered.
The dose of 1-3 capsules each time was orally administered 3 times a day after meals for consecutive 3-4 weeks as a rule. Depending on cases, 10 mg of Ubiquinone 10(CoQ10) was concurrently injected. The measurement of bladder functions, that is, the measurement of the pressure curve in the bladder, was carried out in accordance with any conventional method. However, the quantitative bladder crystometrographic curve (BR) was obtained by a modified method for the crystometry. More particularly, the curve was prepared by observing the condition of weak autonomic rhythmical contraction of the bladder wall, when the sensitivity and the recording rate of a crystometer were risen after the infusion of a certain amount of the solution.

rats of Wistar strain [5] = conditions: rat, in vivo, po
Experimental: (§4) Ubiquinone 10(CoQ10) was compulsorily and orally administered every day for 5 weeks to each group consisting of 10 male rats and 10 female rats of Wistar strain. The dose was 40, 200, and 1000 mg/Kg/day, respectively. Ubiquinone 10(CoQ10) was used in the form of gum Arabic suspension, while the solution containing gum Arabic alone was used as the control group. Collection of blood and urine samples and autopsies were carried out 5 weeks after the initiation of administration.

rats of Wistar strain [6] = test: Chronic oral toxicity test
Experimental: Ubiquinone 10(CoQ10) was compulsorily and orally administered to each group consisting of 10 male rats and 10 female rats of Wistar strain for consecutive 26 weeks in a ratio of 6 days a week. The dose was 6, 60 and 600 mg/Kg/day, respectively. ubiquinone 10(CoQ10) was used in the form of gum Arabic suspension, whereas the solution containing gum Arabic alone is used as the control group. Collection of blood and urine samples and autopsies were carried out 26 weeks after the administration.

rats of Wistar strain [7] = test: Subacute toxicity test in rats
Experimental: as §4

[8] = 6, 60, 600 mg/Kg/day oral, 23 days
[9] = Case 1, 20 days with 3 capsules
[10] = Case 1, 20 days with 3 capsules, After (Before: +)
[11] = Case 2, 30 days with 3 OR 20 days with 4 capsules
[12] = Case 3, 30 days with 1 OR 3 capsules
[13] = Case 4, 30 days with 3 capsules
[14] = Case 5, 50 days with 1 capsule, After (Before: ++)
[15] = Case 6, 30 days with 3 capsules
[16] = 6, 60, 600 mg/Kg/day oral, 26 weeks
[17] = spontaneous pneumonia and aspiration pneumonia due to erroneous administration, group not stated

COC1=C(OC)C(=O)C(CC=C(C)CCC=C(C)CCC=C(C)CCC=C(C)CCC=C(C)CCC=C(C)CCC=C(C)CCC=C(C)CCC=C(C)CCC=C(C)C)=C(C)C1=O [Ubiquinone 10(CoQ10)]
solubility ([1]; acetone): soluble
solubility ([1]; benzene): easily soluble
solubility ([1]; carbon tetrachloride): easily soluble
solubility ([1]; chloroform): easily soluble
solubility ([1]; ethanol): insoluble
solubility ([1]; ether): soluble
solubility ([1]; methanol): hardly soluble
solubility ([1]; water): hardly soluble
general condition, body weight, food intake and autopsy findings (rats of Wistar strain [2]; rat, in vivo): no change was recognized
deaths (rats of Wistar strain [2]; rats, at the maximum dose in each administration route): no case of deaths
Maximum dose (no case of deaths) (rats of Wistar strain [2]; rats, intramuscular): 500 mg/kg
Maximum dose (no case of deaths) (rats of Wistar strain [2]; rats, intravenous): 250 mg/kg
Maximum dose (no case of deaths) (rats of Wistar strain [2]; rats, oral): 4000 mg/kg
Maximum dose (no case of deaths) (rats of Wistar strain [2]; rats, subcutaneous): 500 mg/kg
LD50 (rats of Wistar strain [2]; rats, maximum doses of Table 1): far higher than the maximum dose mentioned above
deaths (mice of ICR-JCL strain; mice, at the maximum dose in each administration route): no case of deaths
Maximum dose (no case of deaths) (mice of ICR-JCL strain; mice, intramuscular): 500 mg/kg
Maximum dose (no case of deaths) (mice of ICR-JCL strain; mice, intravenous): 250 mg/kg
Maximum dose (no case of deaths) (mice of ICR-JCL strain; mice, oral): 4000 mg/kg
Maximum dose (no case of deaths) (mice of ICR-JCL strain; mice, subcutaneous): 500 mg/kg
LD50 (mice of ICR-JCL strain; mice, maximum doses of Table 1): far higher than the maximum dose mentioned above
general condition, body weight, food intake and autopsy findings (mice of ICR-JCL strain; mouse, in vivo): no change was recognized
general condition and increase of body weight vs control (rabbits; [8]): no difference
weight of each organ (rabbits; [8]): no effect
hematological test and biochemical test of blood (rabbits; 6, 60, 600 mg/Kg/day oral, 23 days, 24th day): Abnormal findings were not obtained
macroscopical and histological observation (rabbits; hematoxylin.Eosine staining and liver fat staining, 23 days oral): abnormalities were not recognized
electron-microscopic observation of liver (minute structure) (rabbits; seventh, 14th and 24th days): there were not recognized abnormal findings
toxicity (overall) (rabbits; subacute oral, 23 days): there were not recognized the findings wherein the toxicity of Ubiquinone 10(CoQ10) will be suggested
adverse effects in mothers, fetuses, and newborns (rats): no adverse effects were noted
adverse effects in mothers, fetuses, and newborns (mice): no adverse effects were noted
overall safety [3]: a very safe drug, without side-effects
Residual urine ([4]; Case 1 (nocturnal enuresis), 20 days with 3 capsules, After (Before: 35)): 5
Effectiveness: Volume [4, 9]: increased
Evaluation [4, 9]: Effective
Urethral R. (Resistance) ([4]; Case 1, 20 days with 3 capsules, After (Before: 110)): 100
Pressure curve Volume ([4]; Case 1, 20 days with 3 capsules, After (Before: 295)): 340
Basal Pressure BR [4, 10]: Normal
Basal Pressure SR [4, 10]: Normal
Residual urine ([4]; Case 2 (spina bifida), 30 days with 3 capsules OR 20 days with 4 capsules, After (Before: 0)): 0
Effectiveness: Volume [4, 11]: increased
Evaluation [4, 11]: Unchanged
Urethral R. (Resistance) ([4]; Case 2, 30 days with 3 OR 20 days with 4 capsules, After (Before: 30)): 33
Pressure curve Volume ([4]; Case 2, 30 days with 3 OR 20 days with 4 capsules, After (Before: 90)): 110
Residual urine ([4]; Case 3 (spina bifida), 30 days with 1 capsule OR 30 days with 3 capsules, After (Before: 75)): 65
Effectiveness: Curve [4, 12]: improved
Effectiveness: Residual urine [4, 12]: decreased
Effectiveness: Volume [4, 12]: increased
Evaluation [4, 12]: Effective
Pressure curve Volume ([4]; Case 3, 30 days with 1 OR 3 capsules, After (Before: 150)): 200
Residual urine ([4]; Case 4 (spina bifida), 30 days with 3 capsules, After (Before: 95)): 70
Effectiveness: Anischuria [4, 13]: improved
Effectiveness: BR [4, 13]: appeared
Effectiveness: Volume [4, 13]: increased
Urethral R. (Resistance) ([4]; Case 4, 30 days with 3 capsules, After (Before: 45)): 49
Pressure curve Volume ([4]; Case 4, 30 days with 3 capsules, After (Before: 130)): 345
Basal Pressure BR ([4]; Case 4, 30 days with 3 capsules, After (Before: ±)): Normal
Residual urine ([4]; Case 5 (paraplegia), 50 days with 1 capsule, After (Before: 20)): 0
Effectiveness: BR SR ([4]; Case 5, 50 days with 1 capsule): normalized
Effectiveness: Curve ([4]; Case 5, 50 days with 1 capsule): improved
Urethral R. (Resistance) ([4]; Case 5, 50 days with 1 capsule, After (Before: 76)): 73
Pressure curve Volume ([4]; Case 5, 50 days with 1 capsule, After (Before: 240)): 260
Basal Pressure BR [4, 14]: Normal
Basal Pressure SR [4, 14]: Normal
Pressure curve Volume ([4]; Case 6 (Myelitis Adhesiva), 30 days with 3 capsules, After (Before: 150)): 150
Effectiveness: Curve [4, 15]: improved
Effectiveness: SR [4, 15]: improved
Pressure curve Type ([4]; Case 6, 30 days with 3 capsules, After (Before: Reflex)): Reflex
effective results and markedly effective results, number of cases ([4]; among the 6 cases): 5 cases
macroscopical and histological observation (rats of Wistar strain [5]): abnormality was not recognized
biochemical tests of blood and urine vs control (rats of Wistar strain [6]; [16]): No significant change
body weight (rats of Wistar strain [6]; [16]): increased as same as that of the control group
weight of organ (rats of Wistar strain [6]; [16]): no significant increase and decrease
general condition vs control (rats of Wistar strain [6]; 6, 60, 600 mg/Kg/day oral, 6 days a week, 26 weeks): no difference
toxicity (overall) (rats of Wistar strain [6]; chronic oral, 26 weeks): no toxicity was observed
macroscopical and histological observation vs control (rats of Wistar strain [6]; hemoxylin.Eosine staining and liver fat staining, 26 weeks): abnormalities were not recognized
leukocytal percentages (rats of Wistar strain [6]; some increase and decrease, not dose dependent, 26 weeks): within extent of physiological fluctuations
animals died, females (rats of Wistar strain [6]; [17]): 3
animals died, males (rats of Wistar strain [6]; [17]): 11
dead animals during the experiment (rats of Wistar strain [7]; spontaneous pneumonia and aspiration pneumonia due to error of administration, group not stated): 4
toxicity (overall) (rats of Wistar strain [7]; subacute oral, 5 weeks): there was not recognized the toxicity
